# Assay results: US20240175876A1, “PERIPLASMIC LIGAND TRAPPING SYSTEM” (UNIVERSITY OF MIAMI, priority 2022, published 2024)
# Target: T1, Angiotensin II Receptor Type I (AGTR1) (Homo sapiens, UniProt P30556)
# T1 construct: expressed in transfected cells; host or cells: Saccharomyces cerevisiae strain DI DCyFIR P1 I (humanized Gαi)
# T1 sequence (P30556 1-359): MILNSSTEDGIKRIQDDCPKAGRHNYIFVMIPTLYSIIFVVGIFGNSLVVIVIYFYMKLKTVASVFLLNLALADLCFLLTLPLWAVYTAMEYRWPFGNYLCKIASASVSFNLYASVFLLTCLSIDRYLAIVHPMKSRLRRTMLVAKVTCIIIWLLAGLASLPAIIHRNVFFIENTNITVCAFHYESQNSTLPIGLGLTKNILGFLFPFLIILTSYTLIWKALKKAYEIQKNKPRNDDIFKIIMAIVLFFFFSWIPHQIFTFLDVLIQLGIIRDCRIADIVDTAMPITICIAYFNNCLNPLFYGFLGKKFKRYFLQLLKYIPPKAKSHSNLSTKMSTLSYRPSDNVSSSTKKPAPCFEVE
# Experiment: AGTR1 modulation via intracellular nanobodies, galactose-induced AGT-II, mTq2 reporter in yeast
# Format: cell-based
# Conditions: galactose-induced secreted ligand, Gαi strain; FIG. 5B
substance,measurement,value
angiotensin II [AGT-II],AGTR1 activation by inducible expression of ligand,successfully resulted in AGTR1 activation
